Measurements taken from ChEMBL document CHEMBL3407452, “Linear and branched alkyl-esters and amides of gallic acid and other (mono-, di- and tri-) hydroxy benzoyl derivatives as promising anti-HCV inhibitors” (Eur J Med Chem, 2015).
Active and inactive are the calls of the source. The calls are words filed in the database; no cut-off is given here.

What was measured:
[1] = Cytotoxicity against human CEM cells assessed as inhibition of cell proliferation; assay type: cell-based; conditions: CEM cells (CCRF-CEM)
[2] = tested on: Coxsackievirus B4; assay: Antiviral activity against human coxsackievirus B4; assay type: functional, organism-based
[3] = tested on: Human immunodeficiency virus 2; assay: Antiviral activity against HIV2 ROD infected in human CEM cells assessed as reduction in virus-induced cytopathicity after 4 to 5 days by microscopy based syncytium cell formation assay; assay type: functional, organism-based, ISOLATE ROD, CCRF-CEM; conditions: Human immunodeficiency virus 2, ISOLATE ROD, CCRF-CEM; read-out: EC50
[4] = tested on: Influenza A virus H3N2; assay: Antiviral activity against influenza A virus H3N2; assay type: functional, organism-based
[5] = Cytotoxicity against human Huh5-2 cells after 72 hrs by MTS assay; assay type: cell-based, Huh-5-2
[6] = tested on: Vesicular stomatitis virus; assay: Antiviral activity against vesicular stomatitis virus; assay type: functional, organism-based
[7] = tested on: Human respirovirus 3; assay: Antiviral activity against human parainfluenza virus 3; assay type: functional, organism-based
[8] = tested on: Chikungunya virus; assay: Antiviral activity against chikungunya virus; assay type: functional
[9] = tested on: Punta Toro virus; assay: Antiviral activity against punta toro virus; assay type: functional, organism-based
[10] = tested on: Sindbis virus; assay: Antiviral activity against sindbis virus; assay type: functional, organism-based
[11] = tested on: Vaccinia virus; assay: Antiviral activity against vaccinia virus; assay type: functional, organism-based; conditions: Orthopoxvirus vaccinia
[12] = tested on: Human immunodeficiency virus 1; assay: Antiviral activity against HIV1 3B infected in human CEM cells assessed as reduction in virus-induced cytopathicity after 4 to 5 days by microscopy based syncytium cell formation assay; assay type: functional, organism-based, CCRF-CEM; conditions: Human immunodeficiency virus 1, 3B, CCRF-CEM; read-out: EC50
[13] = tested on: Hepatitis C virus; assay: Antiviral activity against HCV genotype 1b I389luc-ubi-neo/NS3-3'/5.1 replicons infected in human Huh5-2 HCV subgenomic replicon-containing cells assessed as reduction in virus replication after 3 days by luciferase reporter gene assay; assay type: functional, Hepacivirus hominis; conditions: Hepatitis C virus, genotype 1b, Huh-5-2, 72 h; for EC50: read-out: EC50
[14] = tested on: Reovirus sp.; assay: Antiviral activity against reovirus; assay type: functional, organism-based
[15] = tested on: Respiratory syncytial virus; assay: Antiviral activity against RSV; assay type: functional, organism-based
[16] = tested on: Feline coronavirus; assay: Antiviral activity against feline coronavirus; assay type: functional, organism-based
[17] = tested on: Influenza A virus; assay: Antiviral activity against influenza A virus (H1N1); assay type: functional, organism-based
[18] = tested on: Felid alphaherpesvirus 1; assay: Antiviral activity against feline herpesvirus; assay type: functional, organism-based

Structure (SMILES)	CC50 [1] [µM]	Activity [2]	EC50 [3] [µM]	Activity [4]	CC50 at 72 h [5] [µM]	Activity [6]	Activity [7]	Activity [8]	Activity [9]	Activity [10]	Activity [11]	EC50 [12] [µM]	EC90 [13] [µM]	EC50 [13] [µM]	Activity [14]	Activity [15]	Activity [16]	Activity [17]	Activity [18]
O=C(NCCCCNC(=O)c1ccc(O)c(O)c1O)c1ccc(O)c(O)c1O	109	inactive	> 10	inactive	> 50	inactive	inactive	inactive	inactive	inactive	inactive	> 10	> 50	15	inactive	inactive	inactive	inactive	inactive
CCCCOC(=O)c1cc(O)c(O)c(O)c1 [BUTYL GALLATE]	55	inactive	> 10	inactive	29	inactive	inactive	inactive	inactive	inactive	inactive	> 10	> 29	13	inactive	inactive	inactive	inactive	inactive
O=C(NCCCCNC(=O)c1ccccc1O)c1ccccc1O	35	inactive		inactive	> 49	inactive	inactive	inactive	inactive	inactive	inactive	> 10		11	inactive	inactive	inactive	inactive	inactive
CCOC(=O)c1cc(O)c(O)c(O)c1 [ETHYLGALLATE]	23	inactive	> 10	inactive	45	inactive	inactive	inactive	inactive	inactive	inactive	> 10	> 45	19	inactive	inactive	inactive	inactive	inactive
O=C(NCCCCCCNC(=O)c1ccc(O)c(O)c1O)c1ccc(O)c(O)c1O	102	inactive	> 50	inactive	32	inactive	inactive	inactive	inactive	inactive	inactive	> 50		14	inactive	inactive	inactive	inactive	inactive
O=C(NCCCOCCOCCOCCCNC(=O)c1ccc(O)c(O)c1O)c1ccc(O)c(O)c1O	81	inactive	> 50	inactive	49	inactive	inactive	inactive	inactive	inactive	inactive	> 50		28	inactive	inactive	inactive	inactive	inactive
O=C(NCCN(CCNC(=O)c1cc(O)c(O)c(O)c1)CCNC(=O)c1cc(O)c(O)c(O)c1)c1cc(O)c(O)c(O)c1	54	inactive		inactive	> 2.9	inactive	inactive	inactive	inactive	inactive	inactive	10	> 2.9	> 2.9	inactive	inactive	inactive	inactive	inactive
O=C(OCCCCCCCCOC(=O)c1cc(O)c(O)c(O)c1)c1cc(O)c(O)c(O)c1	13	inactive	> 10	inactive	80	inactive	inactive	inactive	inactive	inactive	inactive	> 10	55	17	inactive	inactive	inactive	inactive	inactive
O=C(OCCCCCCOC(=O)c1cc(O)c(O)c(O)c1)c1cc(O)c(O)c(O)c1	22	inactive	≥ 10	inactive	> 50	inactive	inactive	inactive	inactive	inactive	inactive	≥ 10		16	inactive	inactive	inactive	inactive	inactive
O=C(NCCCCCCNC(=O)c1cc(O)c(O)c(O)c1)c1cc(O)c(O)c(O)c1	72	inactive	> 10	inactive	24	inactive	inactive	inactive	inactive	inactive	inactive	> 10	> 24	11	inactive	inactive	inactive	inactive	inactive
O=C(NCCCCNC(=O)c1cc(O)c(O)c(O)c1)c1cc(O)c(O)c(O)c1	23	inactive	> 10	inactive	29	inactive	inactive	inactive	inactive	inactive	inactive	5.2	> 29	18	inactive	inactive	inactive	inactive	inactive
O=C(NCCCCCCCCNC(=O)c1cc(O)c(O)c(O)c1)c1cc(O)c(O)c(O)c1	51	inactive		inactive	> 50	inactive	inactive	inactive	inactive	inactive	inactive	> 10	> 50	23	inactive	inactive	inactive	inactive	inactive
COc1ccc(C(=O)NCCCCCCCCCCCCNC(=O)c2ccc(OC)c(OC)c2OC)c(OC)c1OC					5.4									> 3.5					
CCC[C@H](NC(=O)[C@@H]1[C@H]2CCC[C@H]2CN1C(=O)[C@@H](NC(=O)[C@@H](NC(=O)c1cnccn1)C1CCCCC1)C(C)(C)C)C(=O)C(=O)NC1CC1 [TELAPREVIR]					47									2.8					
CCCCCCCCOC(=O)c1cc(O)c(O)c(O)c1 [OCTYL_GALLATE]	11	inactive	> 2	inactive		inactive	inactive	inactive	inactive	inactive	inactive	> 2			inactive	inactive	inactive	inactive	inactive
